US20070212716A1, “Nezara viridula Ecdysone Receptor” (Commonwealth Scientific & Industrial Research Org., priority 2006, published 2007)

How the values were obtained:
NvEcR10DEF-NvUSPDEF = NvEcR10DEF-NvUSPDEF (Nezara viridula, UniProt E5L6Y1); experiment: Competition binding with [3H]ponasterone A, NvEcR10DEF-NvUSPDEF; conditions: for Ki: calculated from IC50 with the Cheng-Prusoff equation; for IC50: competition with 1.3 nM bindable [3H]ponasterone A
Procedure: (§1) Ligand binding was measured by a [^3H]ponasterone A binding assay which involved trapping of [^3H]ponasterone A-receptor protein complex on glass fibre discs and washing away unbound steroid before scintillation counting in a Packard Tri-carb scintillation analyser. All such assays, unless otherwise stated, were conducted at the same concentration of bindable [^3H]ponasterone A (2.2 nM, after correcting for the fraction of radioactive material that could never be bound no matter how much receptor was added). Binding by the receptor was expressed in terms of arbitrary units (U) that, in the linear range of the assay (i.e. up to 30 000 cpm bound per filter), were directly proportional to filter-bound cpm. Historically, IU was defined as the amount of [^3H]ponasterone A binding conveyed by a fixed volume of a specific receptor preparation. Differences in the assay over time were corrected for empirically by re-assaying the reference receptor preparation with each new batch of [^3H]ponasterone A and calculating a batch-specific adjustment that was incorporated into the numerical factor used to convert filter-bound cpm into ligand binding units. On average, 1 pmol of receptor-bound [^3H]ponasterone A corresponds to approximately 15.2 U. Specific activity values (U/μg protein) can be calculated for different preparations of purified receptor and these reflect the purity of the preparation, the proportion of receptor that is functional, and the Kd value for that particular receptor.
(§2) Increasing concentrations of, ponasterone A, muristerone A, 20-hydroxyecdysone, inokosterone, and α-ecdysone (2β, 3β, 14α,22R, 25-pentahydroxy-5β-cholest-7-ene-6-one) were used to study the ability to compete with a 1.3 nM bindable concentration of [^3H] ponasterone A for binding to the Nv recombinant heterodimers NvEcR10DEF−NvUSPDEF and NvEcR11DEF−NvUSPDEF. IC50 values were obtained from smooth curves drawn through the data points (see FIG. 6), and from these Ki values were calculated using the Cheng-Prusoff equation (Cheng et at, 1973).

NvEcR11DEF-NvUSPDEF = NvEcR11DEF-NvUSPDEF (Nezara viridula, UniProt E5L6Y2); experiment: Competition binding with [3H]ponasterone A, NvEcR11DEF-NvUSPDEF; conditions: for Ki: calculated from IC50 with the Cheng-Prusoff equation; for IC50: competition with 1.3 nM bindable [3H]ponasterone A
Procedure: as §1, §2

[1] = biological target: ecdysone receptor recombinant ligand binding domains (DEF regions) heterodimer; experiment: [3H]ponasterone A binding, Bemisia tabaci recombinant ligand binding region heterodimer; conditions: IMAC-purified Bemisia tabaci heterodimer; previously studied by this group
Procedure: as §1, with “Differences in the assay over time were corrected for empirically by re-assaying the reference receptor preparation with each new batch of [^3H]ponasterone A and calculating a batch-specific adjustment that was incorporated into the numerical factor used to convert filter-bound cpm into ligand binding units.” left out, “receptor. […]” for “receptor.”

[2] = biological target: ecdysone receptor recombinant ligand binding domains (DEF regions) heterodimer; experiment: [3H]ponasterone A binding, Myzus persicae recombinant ligand binding region heterodimer; conditions: IMAC-purified Myzus persicae heterodimer; previously studied by this group
Procedure: as §1, with “Differences in the assay over time were corrected for empirically by re-assaying the reference receptor preparation with each new batch of [^3H]ponasterone A and calculating a batch-specific adjustment that was incorporated into the numerical factor used to convert filter-bound cpm into ligand binding units.” left out, “receptor. […]” for “receptor.”

[3] = system: NvEcR11DEF-NvUSPDEF recombinant ecdysone receptor ligand binding region heterodimer; experiment: [3H]ponasterone A filter binding assay / equilibrium binding, NvEcR11DEF-NvUSPDEF; parameters: species or system Nezara viridula
Procedure: (§3) Ponasterone A binding data used in Kd determination for the purified recombinant heterodimers NvEcR10DEF−NvUSPDEF and NvEcR11DEF−NvUSPDEF (Kd curves). Rt=concentration of active receptor. L=free [^3H] Ponasterone A. All values in tables are given in pM.
as §1, with “Historically, IU was defined as the amount of [^3H]ponasterone A binding conveyed by a fixed volume of a specific receptor preparation. Differences in the assay over time were corrected for empirically by re-assaying the reference receptor preparation with each new batch of [^3H]ponasterone A and calculating a batch-specific adjustment that was incorporated into the numerical factor used to convert filter-bound cpm into ligand binding units.” left out, “receptor. […]” for “receptor.”

[4] = biological target: ecdysone receptor recombinant ligand binding domains (DEF regions) heterodimer; experiment: [3H]ponasterone A binding, Helicoverpa armigera recombinant ligand binding region heterodimer; conditions: IMAC-purified Helicoverpa armigera heterodimer; previously studied by this group
Procedure: as §1, with “Differences in the assay over time were corrected for empirically by re-assaying the reference receptor preparation with each new batch of [^3H]ponasterone A and calculating a batch-specific adjustment that was incorporated into the numerical factor used to convert filter-bound cpm into ligand binding units.” left out, “receptor. […]” for “receptor.”

[5] = biological target: ecdysone receptor recombinant ligand binding domains (DEF regions) heterodimer; experiment: [3H]ponasterone A binding, Lucilia cuprina recombinant ligand binding region heterodimer; conditions: IMAC-purified Lucilia cuprina heterodimer; previously studied by this group
Procedure: as §1, with “Differences in the assay over time were corrected for empirically by re-assaying the reference receptor preparation with each new batch of [^3H]ponasterone A and calculating a batch-specific adjustment that was incorporated into the numerical factor used to convert filter-bound cpm into ligand binding units.” left out

[6] = system: NvEcR10DEF-NvUSPDEF recombinant ecdysone receptor ligand binding region heterodimer; experiment: [3H]ponasterone A filter binding assay / equilibrium binding, NvEcR10DEF-NvUSPDEF; parameters: species or system Nezara viridula
Procedure: as §3
as §1, with “Historically, IU was defined as the amount of [^3H]ponasterone A binding conveyed by a fixed volume of a specific receptor preparation. Differences in the assay over time were corrected for empirically by re-assaying the reference receptor preparation with each new batch of [^3H]ponasterone A and calculating a batch-specific adjustment that was incorporated into the numerical factor used to convert filter-bound cpm into ligand binding units.” left out, “receptor. […]” for “receptor.”

[7] = biological target: T1, FLAG-tagged NvUSPDEF (DEF domains / ligand binding region of Nezara viridula ultraspiracle protein) (Nezara viridula); experiment: IMAC co-purification of the heterodimer through the His6 tag on EcRDEF, from Sf9 cell extracts
T1 construct: Co-expressed with His6-EcRDEF (isoform 10 or 11) in Sf9 cells; also called FLAG USPDEF; FLAG USPDEF5.1
T1 chain: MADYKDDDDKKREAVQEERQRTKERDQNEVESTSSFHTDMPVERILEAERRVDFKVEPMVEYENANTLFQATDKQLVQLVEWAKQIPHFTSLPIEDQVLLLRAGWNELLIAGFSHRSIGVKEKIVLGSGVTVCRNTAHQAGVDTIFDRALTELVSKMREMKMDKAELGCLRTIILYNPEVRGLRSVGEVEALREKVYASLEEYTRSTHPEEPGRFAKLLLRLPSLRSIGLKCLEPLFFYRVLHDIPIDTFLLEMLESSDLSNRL

CC(CO)CC[C@@H](O)[C@](C)(O)[C@H]1CC[C@@]2(O)C3=CC(=O)[C@@H]4C[C@@H](O)[C@@H](O)C[C@]4(C)[C@H]3CC[C@]12C (stereo partly drawn) [Inokosterone]
Ki (NvEcR10DEF-NvUSPDEF): 6300 nM | IC50 (NvEcR10DEF-NvUSPDEF): 7500 nM | Ki (NvEcR11DEF-NvUSPDEF): 6800 nM | IC50 (NvEcR11DEF-NvUSPDEF): 8000 nM

CC(C)CC[C@@H](O)[C@](C)(O)[C@H]1CC[C@@]2(O)C3=CC(=O)[C@@H]4C[C@@H](O)[C@@H](O)C[C@]4(C)[C@H]3CC[C@]12C [Ponasterone A]
Ki (NvEcR10DEF-NvUSPDEF): 200 nM | IC50 (NvEcR10DEF-NvUSPDEF): 260 nM | Ki (NvEcR11DEF-NvUSPDEF): 200 nM | IC50 (NvEcR11DEF-NvUSPDEF): 280 nM

2β, 3β, 14α, 20R,22R,25-hexahydroxy-5β-cholest-7-′ene-6-one [20-hydroxyecdysone]
Ki (NvEcR10DEF-NvUSPDEF): 3600 nM | IC50 (NvEcR10DEF-NvUSPDEF): 4000 nM | Ki (NvEcR11DEF-NvUSPDEF): 3800 nM | IC50 (NvEcR11DEF-NvUSPDEF): 4500 nM

CC(C)CC[C@@H](O)[C@](C)(O)[C@H]1CC[C@@]2(O)C3=CC(=O)[C@]4(O)C[C@@H](O)[C@@H](O)C[C@]4(C)[C@H]3[C@H](O)C[C@]12C [Muristerone A]
Ki (NvEcR10DEF-NvUSPDEF): 100 nM | IC50 (NvEcR10DEF-NvUSPDEF): 120 nM | Ki (NvEcR11DEF-NvUSPDEF): 100 nM | IC50 (NvEcR11DEF-NvUSPDEF): 120 nM

CC(C(O)CCC(C)(C)O)C1CCC2(O)C3=CC(=O)C4CC(O)C(O)CC4(C)C3CCC12C [α-Ecdysone, 2β, 3β, 14α,22R, 25-pentahydroxy-5β-cholest-7-ene-6-one]
Ki (NvEcR10DEF-NvUSPDEF): 46200 nM | IC50 (NvEcR10DEF-NvUSPDEF): 55000 nM | Ki (NvEcR11DEF-NvUSPDEF): 45200 nM | IC50 (NvEcR11DEF-NvUSPDEF): 53000 nM

[^3H]ponasterone A
Kd [1]: 1.2 ± 0.2 nM | Specific activity ([3H]ponasterone A binding units per μg protein) [1]: 11.3 U/μg | Kd [2]: 0.7 ± 0.1 nM | Specific activity ([3H]ponasterone A binding units per μg protein) [2]: 17.3-18.8 U/μg | Specific activity ([3H]ponasterone A binding units per μg protein) ([3]; IMAC-purified NvEcR11DEF-NvUSPDEF, 2.2 nM bindable [3H]ponasterone A): 7.3 U/μg | Kd ([3]; equilibrium binding of [3H]ponasterone A to IMAC-purified NvEcR11DEF-NvUSPDEF): 7.5 ± 0.8 nM | Kd [4]: 2.5 ± 0.1 nM | Kd [5]: 1 ± 0.1 nM | Specific activity ([3H]ponasterone A binding units per μg protein) [5]: 15.4-24.3 U/μg | Specific activity ([3H]ponasterone A binding units per μg protein) ([6]; IMAC-purified NvEcR10DEF-NvUSPDEF, 2.2 nM bindable [3H]ponasterone A): 5.0 U/μg | Kd ([6]; equilibrium binding of [3H]ponasterone A to IMAC-purified NvEcR10DEF-NvUSPDEF): 6.8 ± 0.8 nM

B1: (His)6-tagged NvEcR11DEF (DEF domains / ligand binding region of Nezara viridula ecdysone receptor protein isoform NvEcR11) (receptor)
chain: MGMRGSHHHHHHRPECVVPEYQCAVKRKEKKAQKDKDKPVSTTNGSPESIKVEEPHRVVYKTEGETLGRPVPINGVKPVSPEQEELIHRLVYFQNEYEHPSEEDLRRINTPNEDEEQSDQRFRHLTEITILTVQLIVEFAKRLPGFDKLLREDQIALLKACSSEVMMLRMARKYDATTDSILFANNQPYNRESYSLAGMGDVIEDLLRFCRHMFNMKVDNAEYALLTAIVIFSERPALIEGWKVEKIQEIYLEALKSYVDNRSRPRSPTIFAKLLSVLTELRTLGNQNSEMCFSLKLQNKKLPPFLAEIWDVNT
notes: Co-expressed with FLAG-NvUSPDEF in Sf9 cells from one baculovirus; also called His6EcRDEF11.1; EcRDEF
binding result [7]: binds

B2: (His)6-tagged NvEcR10DEF (DEF domains / ligand binding region of Nezara viridula ecdysone receptor protein isoform NvEcR10) (receptor)
chain: MGMRGSHHHHHHRPECVVPEYQCAVKRKEKKAQKDKDKPVSTTNGSPESIKVEEPHRVVYKTEGETLGRPVPINGVKPVSPEQEELIHRLVYFQNEYEHPSEEDLRRIVSNTPNEDEEQSDQRFRHLTEITILTVQLIVEFAKRLPGFDKLLREDQIALLKACSSEVMMLRMARKYDATTDSILFANNQPYNRESYSLAGMGDVIEDLLRFCRHMFNMKVDNAEYALLTAIVIFSERPALIEGWKVEKIQEIYLEALKSYVDNRSRPRSPTIFAKLLSVLTELRTLGNQNSEMCFSLKLQNKKLPPFLAEIWDVNT
notes: Co-expressed with FLAG-NvUSPDEF in Sf9 cells from one baculovirus; also called His6EcRDEF10.1; EcRDEF
binding result [7]: binds
